The target in one data set is hGLP-1R (Homo sapiens (Human), UniProt P43220). Put plainly: hGLP-1R cAMP assay (agonist cAMP stimulation, Flp-In-293-GLP1R cells). Format: cell-based. Particulars: 30 min at 37° C. Here is the method:
hGLP-1R cAMP Assay • 1. Cell line and reagent preparation • 1) Cell line: Flp-In-293-GLP1R • 2) Medium: DMEM+10% FBS+1×Penicillin-Streptomycin+200 μg/mL HB • 3) Test buffer: 1×HBSS+20 mM HEPES+0.1% BSA+500 μM IBMX • 2. Agonist test • a) Flpin-293-GLP1R cells were incubated in a 384-well assay plate (6007680-50, PE) using complete medium with 2,000 cells per well. • b) Prepared a 4× […] working solution with assay buffer. • c) Added 5 μL of 4× Compound Working Solution to the cell plate and incubated at 37° C. for 30 minutes. • d) Diluted Eu-cAMP tracer (1/50) with lysis buffer and added 10 μl/well to the assay plate. • e) Diluted Ulight-anti-cAMP (1/150) with lysis buffer and added 10 μl/well to the assay plate. • f) Incubated at constant temperature for 1 hour. • g) Read the plate on Envision 2105 plate reader at […]. • 3. Data Analysis • 3.1 The formula for calculating % Activity was as follows
[formula] • 3.2 Calculate EC50 and plot the effect-dose curve for cmpds:
[formula] • X: logarithm of agonist concentration; Y: percentage activity.
For orientation: Cyclic AMP is a second messenger, typically raised through Gs and lowered through Gi signalling.

Data set [1] in a line: Single-dose oral administration pharmacokinetic study in SD rats. In kind it is in vivo. The note with it: Sprague-Dawley, rat, 5 mg/kg, plasma; for Cmax: male SD rats; for AUC(0-t): male, po, exposure over 0-24 hours. As for the experimental part: Single-dose oral administration pharmacokinetic (PK) studies in Sprague-Dawley (SD) rats Pharmacokinetic (PK) studies after a single-dose oral administration for compounds.
Protocol: Animals: Male Sprague-Dawley (SD) rats; Solvent: Solutol: PEG400: Tween80: Saline=10:40:2:48 (v/v/v/v); Dose: 5 mg/kg; Dosing concentration: 0.5 mg/mL in the solvent; Dosing volume: 10 mL/kg. Sample Collection: At each time point, approximately 0.15 mL of blood was drawn from the jugular vein sinus, and the collected whole blood was placed in an anticoagulant tube containing EDTA-K2. After collecting blood samples, they were processed with protein precipitation and then analyzed by LC-MS/MS.

The structures appear in SMILES notation.

Here are results for three compounds from US20250257062A1, “GLP-1R Agonist and Therapeutic Method Thereof” (Ascletis Pharma (China) Co., Limited, priority 2023, published 2025).

Chain of hGLP-1R (P43220 24-463): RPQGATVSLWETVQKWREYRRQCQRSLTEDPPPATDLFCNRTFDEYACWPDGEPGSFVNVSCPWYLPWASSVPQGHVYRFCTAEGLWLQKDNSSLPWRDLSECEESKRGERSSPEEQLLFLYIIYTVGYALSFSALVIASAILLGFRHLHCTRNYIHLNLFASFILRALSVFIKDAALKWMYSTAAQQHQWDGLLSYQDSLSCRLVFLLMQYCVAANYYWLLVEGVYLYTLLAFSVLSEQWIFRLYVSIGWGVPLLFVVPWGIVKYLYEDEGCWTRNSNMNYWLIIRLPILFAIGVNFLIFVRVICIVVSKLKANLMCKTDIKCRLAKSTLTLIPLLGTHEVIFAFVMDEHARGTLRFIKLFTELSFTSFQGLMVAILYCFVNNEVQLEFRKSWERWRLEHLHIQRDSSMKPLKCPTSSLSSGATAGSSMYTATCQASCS

With `C[C@H]1c2c(nn(-c3ccc(F)c4c3CCC4)c2-n2ccn(-c3ccc4c(cnn4C4CC4)c3F)c2=O)CCN1C(=O)c1cc2cc(C3CCOCC3)ccc2n1[C@@]1(c2noc(=O)[nH]2)C[C@@H]1C` [Compound 45], the response at hGLP-1R was half-maximal at 0.015 nM (EC50). Moreover, in data set [1], the peak level (Cmax) was 3210 ng/mL and the area under the curve AUC(0-t) (in general, exposure summed from dosing to a finite time, without extrapolation to infinity) is 29600 ng·h/mL.

As for `C[C@H]1c2c(nn(-c3ccc(F)c(C4CC4)c3)c2-n2ccn(-c3ccc(CP(C)(C)=O)cc3)c2=O)CCN1C(=O)c1cc2cc(C3CCOCC3)ccc2n1[C@@]1(c2noc(=O)[nH]2)C[C@@H]1C` [Compound 51], at hGLP-1R, the EC50 (commonly the concentration giving half of the maximal effect) amounted to 0.028 nM.

Consider `C[C@H]1c2c(nn(-c3ccc(F)c(C4CC4)c3)c2-n2ccn(-c3ccc4c(cnn4C4CC4)c3F)c2=O)CCN1C(=O)c1cc2cc(C3CCOCC3)ccc2n1[C@@]1(c2noc(=O)[nH]2)C[C@@H]1C` [Compound 33], for which, on hGLP-1R, the EC50 was determined as 0.02 nM. In addition, in data set [1], the Cmax – broadly, the peak of the concentration-time curve – is 5610 ng/mL and the AUC(0-t) was 71200 ng·h/mL.
